Tests used:
Aspergillus niger = assay: Minimum inhibitory concentration (MIC), agar dilution method, DIN 58940; format: cell-based
Method: (§1) The MIC values were determined in accordance with DIN 58940 by the agar dilution method.

Candida albicans = assay: as above; format: cell-based
Method: as §1

Pseudomonas aeruginosa = assay: as above; format: cell-based
Method: as §1

Staphyloccus aureus = assay: as above; format: cell-based
Method: as §1

[1] = O/W emulsions and W/O emulsions; 0.5% by weight; cited from earlier work
[2] = cited from earlier work

| SMILES | MIC in % (Aspergillus niger) [%] | MIC in % (Candida albicans) [%] | MIC in % (Pseudomonas aeruginosa) [%] | MIC in % (Staphyloccus aureus) [%] | antimicrobial activity [1] | solubility in oil [2] | solubility in water [2] |
| --- | --- | --- | --- | --- | --- | --- | --- |
| Cc1cc(CC(C)CC(C)(C)C)n(O)c(=O)c1.NCCO (centres unmarked) [Octopirox ®, 2-aminoethanol salt of 1-hydroxy-4-methyl-6-(2,4,4-trimethylpentyl)-2(1H)-pyridone] | 0.004 | 0.004 | 0.016 | 0.002 | inadequate | no more than moderate solubility | low solubility |
| OCCOc1ccccc1 [PE, 2-phenoxyethanol] | 0.25 | 0.5 | 0.5 | 0.25 | – | – | – |

— patent publication US8877234B2, “Preservatives” (Clariant Finance (BVI) Limited, priority 2005, dated 2014)
